This note sets out measurements from paper PMC5471204, “Autotransporter domain-dependent enzymatic analysis of a novel extremely thermostable carboxylesterase with high biodegradability towards pyrethroid pesticides” (Scientific Reports, 2017).

The structures appear in SMILES notation.

Assay [1] deals with T1, EstPS1.
T1 construct: full-length ORF with signal peptide (24 residues) and autotransporter domain (357-640); N-terminal His-tag, pET-28a, E. coli BL21(DE3), Ni-NTA; 640 residues, 68 kDa
Description: pesticide hydrolysis, gas chromatography, Lineweaver-Burk. The class given is biochemical, Pseudomonas synxantha. Particulars: 50 mM Tris-HCl pH 8.0, 40 °C (degradation assay); stated substrate range 10 to 500 μM. The text has this: pesticide hydrolysis, gas chromatography, Lineweaver-Burk on EstPS1

Assay [2] deals with T1, EstPS1. Description: p-nitrophenol release at […] nm, Lineweaver-Burk. The class given is biochemical, Pseudomonas synxantha. Particulars: 50 mM Tris-HCl pH 8.0, 60 °C.

As usually defined, the Km is the substrate concentration at which the rate is half of its maximum. For the molecule `Cc1c(COC(=O)[C@@H]2[C@H](/C=C(\Cl)C(F)(F)F)C2(C)C)cccc1-c1ccccc1` (racemic) [Bifenthrin], the Km in the assay on EstPS1 [1] was 1.25 ± 0.061 µM.

For the molecule `CNC(=O)Oc1cccc2ccccc12` [Carbaryl], in the assay on EstPS1 [1], the Km was determined as 0.21 ± 0.01 µM.

As for `CC1(C)C(C(=O)OC(C#N)c2cccc(Oc3ccccc3)c2)C1(C)C` (stereo not drawn) [Fenpropathrin], the Km in the assay on EstPS1 [1] came to 0.25 ± 0.014 µM.

Take `CC(C)C(C(=O)OC(C#N)c1cccc(Oc2ccccc2)c1)c1ccc(Cl)cc1` (stereo not drawn) [Fenvalerate]: the Km with EstPS1 [1] worked out at 0.84 ± 0.042 µM.

For `CC1(C)C(C=C(Cl)Cl)C1C(=O)OC(C#N)c1cccc(Oc2ccccc2)c1` (stereo not drawn) [cis-Cypermethrin], the Michaelis constant (Km) in the assay on EstPS1 [1] was determined as 0.62 ± 0.031 µM.

Turning to `CC(=O)Oc1ccc([N+](=O)[O-])cc1` [p-Nitrophenyl acetate], in the assay on EstPS1 [2], the Km was 102 ± 12 µM.

With `CCCC(=O)Oc1ccc([N+](=O)[O-])cc1` [p-Nitrophenyl butyrate], the Km with EstPS1 [2] was 43 ± 8 µM.

`CCCCCC(=O)Oc1ccc([N+](=O)[O-])cc1` [p-Nitrophenyl caproate]: in the assay on EstPS1 [2], the Km stood at 76 ± 7 µM.

On to `CCCCCCCC(=O)Oc1ccc([N+](=O)[O-])cc1` [p-Nitrophenyl caprylate], for which the Km in the assay on EstPS1 [2] came to 61 ± 10 µM.

With `CCCCCCCCCC(=O)Oc1ccc([N+](=O)[O-])cc1` [p-Nitrophenyl decanoate], the Km with EstPS1 [2] was 362 ± 13 µM.

On to `CCCCCCCCCCCC(=O)Oc1ccc([N+](=O)[O-])cc1` [p-Nitrophenyl laurate], for which the Km in the assay on EstPS1 [2] amounted to 391 ± 9 µM.

In the case of `CC1(C)C(C=C(Cl)Cl)C1C(=O)OC(C#N)c1cccc(Oc2ccccc2)c1` (stereo not drawn) [trans-Cypermethrin], the Km with EstPS1 [1] came out at 0.53 ± 0.028 µM.
